US20070172957A1, “Methods of identifying anti-inflammatory macrolides” (TAISHO PHARMACEUTICAL CO., LTD., priority 2004, published 2007)

System: genes predictive for the anti-inflammatory macrolide effect
Test: Genes statistically predictive of Clari response: differentially expressed with Clari but not the inactive macrolides MAA or Josa (Appendix E)
Assay type: cell-based
Conditions: pooled group mean
Description: In the case of the above-mentioned (i) related to arachidonic acid biosynthesis, specifically, methods of the embodiment involve assaying whether a test macrolide alters biosynthesis of arachidonic acid, alters the expression or activities of enzymes involved in the biosynthesis or activation of arachidonic acid (e.g., arachidonic acid CoA synthetase, delta-6 desaturase, fatty acid elongase, and delta-5 desaturase, AA-related genes in Tables 2 and 3), or alters the expression of genes identified as predictive for the anti-inflammatory macrolide effect (Appendix E). Assays in which arachidonic acid or gene expression or enzymatic activity is detected can be carried out after contacting a cell with a test macrolide. Any cell line that secretes prostaglandin or produces arachidonic acid can be used. Epithelial and macrophages lines (e.g., A549 or THP-1) are suitable for this purpose; other cell lines can be identified by carrying out assays such as those described in the specific Examples, below. Alternatively, screening assays can be carried out after adding a test macrolide to an in vitro cell system (e.g., a cellular extract or liver microsome preparation) or an in vitro enzyme assay system.

CC[C@H]1OC(=O)[C@H](C)[C@@H](O[C@H]2C[C@@](C)(OC)[C@@H](O)[C@H](C)O2)[C@H](C)[C@@H](O[C@@H]2O[C@H](C)C[C@H](N(C)C)[C@H]2O)[C@](C)(O)C[C@@H](C)/C(=N\OCOCCOC)[C@H](C)[C@@H](O)[C@]1(C)O [roxithromycin]
mean group, FLJ20699 (SpotID 46633): 0.81 | mean group, ARHGAP1 (SpotID 46648): 0.96 | mean group, KIAA1172 (SpotID 46679): 0.92 | mean group, MKNK2 (SpotID 46825): 1.12 | mean group, ARHGDIA (SpotID 46843): 0.93 | mean group, CDIPT (SpotID 46896): 1.01 | mean group, PACE (SpotID 46923): 1.09 | mean group, METAP2 (SpotID 46935): 0.89 | mean group, EREG (SpotID 46988): 0.85 | mean group, C2orf3 (SpotID 47034): 0.90 | mean group, NUBP1 (SpotID 47241): 0.95 | mean group, EPOR (SpotID 47314): 1.14 | mean group, ADAM11 (SpotID 47352): 1.10 | mean group, P4HB (SpotID 47366): 1.18 | mean group, CETN2 (SpotID 47415): 1.18 | mean group, SNK (SpotID 47418): 0.82 | mean group, GCS1 (SpotID 47432): 1.02 | mean group, DCTN1 (SpotID 47439): 0.95 | mean group, RANBP1 (SpotID 47446): 0.89 | mean group, MSH3 (SpotID 47504): 0.99 | mean group, SERPINA1 (SpotID 47522): 0.95 | mean group, TRAP1 (SpotID 47622): 0.94 | mean group, NR4A2 (SpotID 47679): 1.14 | mean group, HSPA9B (SpotID 47694): 0.95 | mean group, NBS1 (SpotID 47754): 0.97 | mean group, POLA (SpotID 47776): 0.89 | mean group, GOT1 (SpotID 47802): 0.94 | mean group, ENTPD6 (SpotID 47811): 1.06 | mean group, SSI-1 (SpotID 47846): 0.93 | mean group, PRLR (SpotID 47850): 0.99 | mean group, P4HA1 (SpotID 47935): 1.18 | mean group, DNASE1L1 (SpotID 47950): 1.03 | mean group, USF2 (SpotID 47973): 1.05 | mean group, THBS1 (SpotID 47987): 0.71 | mean group, RPN2 (SpotID 47988): 1.02 | mean group, CUTL1 (SpotID 48004): 1.02 | mean group, SRF (SpotID 48026): 1.03 | mean group, FRDA (SpotID 48137): 0.90 | mean group, SFRS7 (SpotID 48149): 0.88 | mean group, ZAP3 (SpotID 48160): 0.95 | mean group, MAPK12 (SpotID 48233): 1.03 | mean group, GRB2 (SpotID 48266): 1.04 | mean group, GCN5L1 (SpotID 48301): 1.01 | mean group, CCT3 (SpotID 48345): 1.03 | mean group, MAPK9 (SpotID 48365): 0.94 | mean group, MGEA5 (SpotID 48411): 1.13 | mean group, SERPINB1 (SpotID 48415): 1.28 | mean group, DDC (SpotID 48456): 0.97 | mean group, BARD1 (SpotID 48461): 0.86 | mean group, SpotID 48486 (SpotID 48486 (gene symbol not given)): 0.94 | mean group, RPL13A (SpotID 48500): 0.92 | mean group, ARAF1 (SpotID 48521): 0.98 | mean group, APLP2 (SpotID 48530): 1.10 | mean group, NFE2L1 (SpotID 48557): 1.06 | mean group, XBP1 (SpotID 48620): 1.10 | mean group, SDCBP (SpotID 48646): 1.08 | mean group, FECH (SpotID 48654): 0.98 | mean group, HSPBP1 (SpotID 48693): 0.91 | mean group, P4HA1 (SpotID 48707): 1.18 | mean group, PPP3CB (SpotID 48717): 0.95 | mean group, IKKE (SpotID 48725): 0.94 | mean group, RALA (SpotID 48732): 1.06 | mean group, MAFB (SpotID 48747): 0.93 | mean group, KIAA0217 (SpotID 48804): 0.88 | mean group, ITGAE (SpotID 48921): 0.97 | mean group, PRSS25 (SpotID 49006): 1.14 | mean group, TM9SF2 (SpotID 49007): 1.18 | mean group, BNIP3L (SpotID 49028): 1.20 | mean group, SERPINB1 (SpotID 49117): 0.88 | mean group, ARTS-1 (SpotID 49155): 0.86 | mean group, RRS1 (SpotID 49169): 0.93 | mean group, APOE (SpotID 49233): 1.01 | mean group, TNFRSF10B (SpotID 49272): 1.08 | mean group, PPIB (SpotID 49314): 1.16 | mean group, YWHAH (SpotID 49318): 0.97 | mean group, TEB4 (SpotID 49360): 0.94 | mean group, SpotID 49374 (SpotID 49374 (gene symbol not given)): 1.03 | mean group, TRRAP (SpotID 49435): 0.92 | mean group, SRC (SpotID 49446): 1.14 | mean group, VTN (SpotID 49490): 0.94 | mean group, UBC (SpotID 49514): 1.09 | mean group, AP1G2 (SpotID 49524): 0.92 | mean group, LOC54543 (SpotID 49577): 1.02 | mean group, CSTF3 (SpotID 49606): 1.07 | mean group, CLN2 (SpotID 49618): 1.12 | mean group, BTN3A2 (SpotID 49673): 1.11 | mean group, SERPINF1 (SpotID 49679): 1.09 | mean group, CHAF1B (SpotID 49737): 0.88 | mean group, AD022 (SpotID 49767): 1.10 | mean group, CYC1 (SpotID 49787): 0.94 | mean group, AD022 (SpotID 49800): 1.09 | mean group, ATP2B4 (SpotID 49915): 1.06 | mean group, RFC1 (SpotID 49947): 0.93 | mean group, HIF1A (SpotID 50022): 0.93 | mean group, NDUFA2 (SpotID 50050): 1.02 | mean group, SCOP (SpotID 50079): 1.04 | mean group, CNOT3 (SpotID 50099): 0.86 | mean group, IL10RB (SpotID 50267): 1.08 | mean group, IKKE (SpotID 50342): 1.08 | mean group, LOC51295 (SpotID 50349): 0.84 | mean group, CFL1 (SpotID 50351): 1.00 | mean group, GOCAP1 (SpotID 50421): 1.10 | mean group, MGP (SpotID 50511): 0.98 | mean group, ARHC (SpotID 50513): 1.00 | mean group, BN51T (SpotID 50584): 1.07 | mean group, CKS2 (SpotID 50590): 0.89 | mean group, SpotID 50591 (SpotID 50591 (gene symbol not given)): 1.13 | mean group, SRP19 (SpotID 50601): 1.06 | mean group, BET1 (SpotID 50645): 1.01 | mean group, PRKDC (SpotID 50736): 0.92 | mean group, AD022 (SpotID 50738): 1.10
